From patent US9248119B2, “Modified release dosage forms of xanthine oxidoreductase inhibitor or xanthine oxidase inhibitors” (Takeda Pharmaceuticals U.S.A., Inc., priority 2010, dated 2016)
Where two headings read alike, the source gives them in different places.

How the values were obtained:
[1] = Phase 1 single-dose 5-way crossover study of four extended release and one immediate release febuxostat formulation; assay type: in vivo, human; conditions: all subjects, all formulations
Source text: This examples describes the results of a phase 1, single-center, open-label, randomized, 5-way crossover study. Thirty-five adult male and female subjects aged 18 to 55 years, inclusive, in good health, were selected to participate in this study.

[2] = target: T1, xanthine oxidase (Homo sapiens, UniProt P47989)
[3] = Absorption of febuxostat from various regions of the gastro-intestinal tract in rats; assay type: in vivo, rat
Source text: The pharmacokinetic data obtained in the clinical trial referenced above was subsequently used to develop estimated plasma profiles for various febuxostat formulations, including extended release matrix tablets, two-pulse febuxostat formulations, and three-pulse febuxostat formulations. The estimated extended release formulation data was based on a matrix formulation incorporating one or more polymers, and the estimated two-pulse and three-pulse formulation data was based on a formulation incorporating two or more types of beads with differing release profiles. This information and methodology is discussed in Example 2. Additionally, as part of the development process for an extended release febuxostat formulation, various sites of absorption were investigated to determine the optimal physiologic sites of drug absorption for an extended release febuxostat formulation. In early pre-clinical studies, absorption of febuxostat from various regions of the gastro-intestinal tract was studied in rats. […] To guide development of a dosage form that provided the desired plasma concentration-time profile, a site of absorption study was conducted in humans.

[4] = target: T1, xanthine oxidase; remark: listed apart in the source
[5] = target: T2, albumin (Homo sapiens, UniProt P02768); experiment: Binding to albumin in the blood; assay type: in vitro ADME
T2 construct: from tissue; host or cells: blood / plasma

[6] = Bioavailability of febuxostat released in various locations of the gastrointestinal tract (site of absorption study); assay type: in vivo, human; conditions: humans
Method: Subjects all received regimens in a crossover fashion according to a randomization schedule. Extra periods (up to 2 per subject) were added where subject dose release issues required repeating a regimen. There was a washout interval of at least 7 days between the dose in a period and the next dose in the subsequent period.
The method utilizes protein precipitation with acetonitrile of a 100-μL aliquot of plasma, with a lower limit of detection of 10.0 ng/mL.
Pharmacokinetic parameters for febuxostat were estimated using standard noncompartmental methods. Calculations were performed using the WinNonlin Pro Version 5.2 (Mountain View, Calif., USA). The descriptive statistics for pharmacokinetic parameter estimates were computed. […] The subjects who had improper capsule release were allowed to repeat up to two extra periods after their scheduled sequence had ended. For ANOVA purposes, the missing or incomplete data from the periods with improper capsule release was replaced by the data from the corresponding repeated periods using the originally planned period for that regimen.

T1 sequence (P47989 whole entry): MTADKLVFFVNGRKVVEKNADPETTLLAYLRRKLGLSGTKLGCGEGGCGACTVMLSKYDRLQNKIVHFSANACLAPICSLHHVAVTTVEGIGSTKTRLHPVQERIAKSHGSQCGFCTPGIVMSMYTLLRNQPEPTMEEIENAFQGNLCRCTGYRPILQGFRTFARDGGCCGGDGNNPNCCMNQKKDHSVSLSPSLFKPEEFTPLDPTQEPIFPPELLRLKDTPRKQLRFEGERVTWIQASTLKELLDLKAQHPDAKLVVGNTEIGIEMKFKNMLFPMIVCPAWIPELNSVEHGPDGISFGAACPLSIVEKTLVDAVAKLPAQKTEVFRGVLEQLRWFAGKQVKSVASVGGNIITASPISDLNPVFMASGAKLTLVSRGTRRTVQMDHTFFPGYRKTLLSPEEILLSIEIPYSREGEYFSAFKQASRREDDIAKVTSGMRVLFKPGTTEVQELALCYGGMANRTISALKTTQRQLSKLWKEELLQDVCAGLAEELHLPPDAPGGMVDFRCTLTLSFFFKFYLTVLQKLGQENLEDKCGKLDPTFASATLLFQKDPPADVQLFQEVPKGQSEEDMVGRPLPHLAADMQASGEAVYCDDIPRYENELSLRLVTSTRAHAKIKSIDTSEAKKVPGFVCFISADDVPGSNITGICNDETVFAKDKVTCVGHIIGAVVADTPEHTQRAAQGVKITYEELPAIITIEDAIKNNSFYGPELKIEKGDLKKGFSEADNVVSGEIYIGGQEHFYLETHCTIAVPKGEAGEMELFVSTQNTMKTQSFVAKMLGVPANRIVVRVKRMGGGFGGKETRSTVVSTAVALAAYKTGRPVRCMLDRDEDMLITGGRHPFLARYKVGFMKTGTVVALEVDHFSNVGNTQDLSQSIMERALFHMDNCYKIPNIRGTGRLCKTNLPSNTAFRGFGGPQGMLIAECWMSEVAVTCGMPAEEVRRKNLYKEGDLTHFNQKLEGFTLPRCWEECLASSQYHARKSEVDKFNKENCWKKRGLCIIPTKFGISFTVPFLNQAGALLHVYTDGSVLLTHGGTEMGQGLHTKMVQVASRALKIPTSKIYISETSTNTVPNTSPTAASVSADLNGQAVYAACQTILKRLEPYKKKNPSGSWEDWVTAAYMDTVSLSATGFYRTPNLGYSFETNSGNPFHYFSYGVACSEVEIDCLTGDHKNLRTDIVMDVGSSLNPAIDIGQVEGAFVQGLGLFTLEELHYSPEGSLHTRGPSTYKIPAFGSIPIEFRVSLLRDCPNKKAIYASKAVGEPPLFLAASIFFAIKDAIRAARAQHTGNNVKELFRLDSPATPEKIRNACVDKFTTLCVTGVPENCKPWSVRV
T2 sequence (P02768 25-609): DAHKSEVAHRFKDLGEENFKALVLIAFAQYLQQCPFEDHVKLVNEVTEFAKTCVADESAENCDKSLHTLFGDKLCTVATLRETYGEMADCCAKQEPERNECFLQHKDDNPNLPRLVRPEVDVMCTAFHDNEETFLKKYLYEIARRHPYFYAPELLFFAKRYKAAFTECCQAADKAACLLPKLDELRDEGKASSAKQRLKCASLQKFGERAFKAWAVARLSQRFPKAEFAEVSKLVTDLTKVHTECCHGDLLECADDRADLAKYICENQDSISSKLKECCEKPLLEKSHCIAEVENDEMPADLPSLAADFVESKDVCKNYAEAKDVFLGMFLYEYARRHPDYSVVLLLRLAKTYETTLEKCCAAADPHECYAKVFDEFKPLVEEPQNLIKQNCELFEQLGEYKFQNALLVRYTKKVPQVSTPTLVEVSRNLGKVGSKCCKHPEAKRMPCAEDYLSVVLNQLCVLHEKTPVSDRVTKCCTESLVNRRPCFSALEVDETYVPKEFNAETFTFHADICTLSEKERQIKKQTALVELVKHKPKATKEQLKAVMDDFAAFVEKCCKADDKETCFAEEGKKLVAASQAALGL

## Cc1nc(-c2ccc(OCC(C)C)c(C#N)c2)sc1C(=O)O [Febuxostat, 2-[3-cyano-4-(2-methylpropoxy)phenyl]-4-methylthiazole-5-carboxylic acid]
[1]
  absorption lag-time after oral dosing: no absorption lag-time
[2]; IR 10 mg QD, 8 hours post dose
  Percentage Inhibition of xanthine oxidase: 43.6%
[2]; IR 10 mg QD, 12 hours post dose
  Percentage Inhibition of xanthine oxidase: 27.3%
[2]; IR 10 mg QD, 16 hours post dose
  Percentage Inhibition of xanthine oxidase: 0%
[2]; IR 10 mg QD, 24 hours post dose
  Percentage Inhibition of xanthine oxidase: 0%
[2]; IR 20 mg QD, 8 hours post dose
  Percentage Inhibition of xanthine oxidase: 55.9%
[2]; IR 20 mg QD, 12 hours post dose
  Percentage Inhibition of xanthine oxidase: 54.0%
[2]; IR 20 mg QD, 16 hours post dose
  Percentage Inhibition of xanthine oxidase: 42.8%
[2]; IR 20 mg QD, 24 hours post dose
  Percentage Inhibition of xanthine oxidase: 0%
[2]; IR 30 mg QD, 8 hours post dose
  Percentage Inhibition of xanthine oxidase: 62.3%
[2]; IR 30 mg QD, 12 hours post dose
  Percentage Inhibition of xanthine oxidase: 52.5%
[2]; IR 30 mg QD, 16 hours post dose
  Percentage Inhibition of xanthine oxidase: 37.1%
[2]; IR 30 mg QD, 24 hours post dose
  Percentage Inhibition of xanthine oxidase: 35.9%
[2]; IR 40 mg QD, 8 hours post dose
  Percentage Inhibition of xanthine oxidase: 69.8%
[2]; IR 40 mg QD, 12 hours post dose
  Percentage Inhibition of xanthine oxidase: 55.9%
[2]; IR 40 mg QD, 16 hours post dose
  Percentage Inhibition of xanthine oxidase: 43.3%
[2]; IR 40 mg QD, 24 hours post dose
  Percentage Inhibition of xanthine oxidase: 36.2%
[2]; IR 50 mg QD, 8 hours post dose
  Percentage Inhibition of xanthine oxidase: 77.9%
[2]; IR 50 mg QD, 12 hours post dose
  Percentage Inhibition of xanthine oxidase: 64.9%
[2]; IR 50 mg QD, 16 hours post dose
  Percentage Inhibition of xanthine oxidase: 49.1%
[2]; IR 50 mg QD, 24 hours post dose
  Percentage Inhibition of xanthine oxidase: 38.5%
[2]; IR 70 mg QD, 8 hours post dose
  Percentage Inhibition of xanthine oxidase: 81.2%
[2]; IR 70 mg QD, 12 hours post dose
  Percentage Inhibition of xanthine oxidase: 66.3%
[2]; IR 70 mg QD, 16 hours post dose
  Percentage Inhibition of xanthine oxidase: 56.0%
[2]; IR 70 mg QD, 24 hours post dose
  Percentage Inhibition of xanthine oxidase: 35.3%
[2]; IR 90 mg QD, 8 hours post dose
  Percentage Inhibition of xanthine oxidase: 85.6%
[2]; IR 90 mg QD, 12 hours post dose
  Percentage Inhibition of xanthine oxidase: 77.7%
[2]; IR 90 mg QD, 16 hours post dose
  Percentage Inhibition of xanthine oxidase: 68.1%
[2]; IR 90 mg QD, 24 hours post dose
  Percentage Inhibition of xanthine oxidase: 50.3%
[2]; IR 120 mg QD, 8 hours post dose
  Percentage Inhibition of xanthine oxidase: 89.0%
[2]; IR 120 mg QD, 12 hours post dose
  Percentage Inhibition of xanthine oxidase: 82.6%
[2]; IR 120 mg QD, 16 hours post dose
  Percentage Inhibition of xanthine oxidase: 75.8%
[2]; IR 120 mg QD, 24 hours post dose
  Percentage Inhibition of xanthine oxidase: 60.5%
[2]; IR 120 mg, Table 2
  time for which at least 80% inhibition of xanthine oxidase is provided: ≤ 16 h
[2]; IR 160 mg QD, 8 hours post dose
  Percentage Inhibition of xanthine oxidase: 93.9%
[2]; IR 160 mg QD, 12 hours post dose
  Percentage Inhibition of xanthine oxidase: 90.9%
[2]; IR 160 mg QD, 16 hours post dose
  Percentage Inhibition of xanthine oxidase: 81.4%
[2]; IR 160 mg QD, 24 hours post dose
  Percentage Inhibition of xanthine oxidase: 67.6%
[2]; IR 180 mg QD, 8 hours post dose
  Percentage Inhibition of xanthine oxidase: 94.7%
[2]; IR 180 mg QD, 12 hours post dose
  Percentage Inhibition of xanthine oxidase: 91.7%
[2]; IR 180 mg QD, 16 hours post dose
  Percentage Inhibition of xanthine oxidase: 81.5%
[2]; IR 180 mg QD, 24 hours post dose
  Percentage Inhibition of xanthine oxidase: 68.4%
[2]; IR 240 mg QD, 8 hours post dose
  Percentage Inhibition of xanthine oxidase: 95.7%
[2]; IR 240 mg QD, 12 hours post dose
  Percentage Inhibition of xanthine oxidase: 91.4%
[2]; IR 240 mg QD, 16 hours post dose
  Percentage Inhibition of xanthine oxidase: 86.5%
[2]; IR 240 mg QD, 24 hours post dose
  Percentage Inhibition of xanthine oxidase: 72.4%
[3]
  absorption from the colonic region: very poor
[4]; 120 mg immediate release dosage forms, other studies
  time with at least 80% inhibition of xanthine oxidase: ~14 h
[4]; 240 mg immediate release dosage forms, further studies
  time with at least 80% inhibition of xanthine oxidase: about 22 hours
[5]
  bound to albumin in the blood: ~99.3%
[6]
  absorption in the colon compared to immediate release, proximal intestine and distal intestine: approximately 40%
